Data on three compounds can be found in US20260355357A1, “DIAGNOSTIC AGENTS AND USES THEREOF” (HADASIT MEDICAL RESEARCH SERVICES AND DEVELOPMENT LTD., priority 2023, published 2026).

Data set [1] deals with human brain. To be noted: in vivo; cited from earlier work.
The nature of data set [2]: Biodistribution of deuterated 2-deoxy-D-glucose, 2H-NMR of tissue extracts, mice. It is filed as in vivo, mouse. How it is done: (§1) Mice and rats, males and females at equal numbers, were intravenously injected with a bolus of varying doses of deuterated 2-deoxy-D-glucose (2-DG, DDG, with varying numbers and positions of deuteration). DDGs were provided by CortecNet, France. The injection was performed under sedation in all rats (18) and in 12 of 18 mice, after which the animals woke up within 1 minute. […] Further to euthanasia, the brain, liver, kidneys, heart, and muscle were excised and immediately placed in liquid nitrogen. The frozen tissue samples were kept at −80 °C until further processing.
(§2) Extraction of the water-soluble metabolites and the lipids was carried out using the dual-phase extraction procedure as described previously [Katz-Brull R, et al. Differential routing of choline in implanted breast cancer and normal organs. Article. Magnetic Resonance in Medicine. July 2001; 46(1):31-38. doi:10.1002/mrm.1157]. Briefly, a frozen sample is placed in 10 mL of ice-cold methanol containing 0.4 mM phenyl phosphonic acid for at least 1 hour. The tissue is then homogenized in ice-cold methanol using a tissue homogenizer. Equal volumes of chloroform and water are then added to the sample tube, and the mixture is vortexed and vigorously shaken. The samples are allowed to stand at 4 °C for at least 24 hours for phase separation. The methanol-water phase is aspirated, treated with Chelex to remove divalent ions, and then lyophilized for at least 24 hours. When the samples are dry (as powder), they are redissolved in 0.5 mL of double-distilled water and transferred to 5-mm NMR tubes for scanning. The samples are scanned in a 9.4 T NMR spectrometer.

The nature of data set [3]: Adverse effects after bolus intravenous injection of DDG, mice. It is filed as in vivo, mouse. Particulars: bolus i.v., 37 mg/kg to 248 mg/kg (mice and rats), awake up to 78 min. The procedure: as §1
(§3) The animals were observed awake for up to 78 min after the injection. The injection bolus was administered in less than 1 s and ranged from 0.1 mL for mice (ca. 25-40 g) to 0.6 mL for rats (ca. 120-160 g).

The nature of data set [4]: Adverse effects after bolus intravenous injection of DDG, rats. It is filed as in vivo, rat. To be noted: bolus i.v., 37 mg/kg to 248 mg/kg (mice and rats), awake up to 78 min. The procedure:
as §1, §3

Data set [5] can be described thus: Biodistribution of deuterated 2-deoxy-D-glucose, 2H-NMR of tissue extracts, rats. Type of data set: in vivo, rat. To be noted: for concentration: [D4]DDG bolus i.v., 37-55 mg/kg (non-labeled 2DG equivalent). The procedure:
as §1, §2

For the compound `OC[C@H]1OC(O)[C@H](F)[C@@H](O)[C@@H]1O` (stereo partly drawn) [[18F]-fluoro-2-deoxy-D-glucose], in data set [1], the “accumulation in the human brain” value is recorded as “accumulates at very high levels in the human brain”.

Consider `[2H]C([2H])(O)[C@H]1OC(O)C[C@@H](O)[C@@H]1O` (stereo partly drawn) [[D2]DDG, [6,6-D2]2-deoxy-D-glucose], for which the concentration in data set [2] ([D2]DDG bolus i.v., 169-182 mg/kg (non-labeled 2DG equivalent), n=1, read-out: concentration in the liver) came to 400 µM; in data set [2] ([D2]DDG bolus i.v., 169-182 mg/kg (non-labeled 2DG equivalent), n=2, read-out: concentration in the brain), 1190 µM. In addition, the adverse effects entry in data set [3] and in data set [4] was “no adverse effects” throughout.

On to `[2H]C([2H])(O)[C@H]1OC(O)C[C@@]([2H])(O)[C@]1([2H])O` (stereo partly drawn) [[D4]DDG, [3,4,6,6-D4]2-deoxy-D-glucose], for which the concentration worked out at 1790 µM in data set [2] ([D4]DDG bolus i.v., 43-45 mg/kg (non-labeled 2DG equivalent), n=1, read-out: concentration in the kidneys); 3140 µM in data set [2] ([D4]DDG bolus i.v., 43-45 mg/kg (non-labeled 2DG equivalent), n=2, read-out: concentration in the heart); 230 µM in data set [2] ([D4]DDG bolus i.v., 43-45 mg/kg (non-labeled 2DG equivalent), n=2, read-out: concentration in the liver); 2700 µM in data set [5] (n=2, read-out: concentration in the heart); 1600 µM in data set [5] (n=6, read-out: concentration in the brain); 80 µM in data set [5] (n=6, read-out: concentration in the muscle). Also, the “2H-NMR signal in rat brain extract” value in data set [5] (FIG. 7, 45 mg/kg, awake 36 min, 9.4 T) is “due to the deuterons of [D4]DDG”; in data set [5] (FIG. 7 legend, awake 30 min) it was “the right signal (full arrow) is of deuterons of [3,4,6,6-D4]2-deoxy-D-glucose”. The adverse effects entry in data set [3] and in data set [4] was “no adverse effects” in each case.
